Literature values, collected in patent publication US20140322324A1, “Composition For The Treatment Of Bacterial Infections” (priority 2011, published 2014).

Tested on: Staphylococcus aureus (ATCC #14154 and #14775)
Settings: two strains of Staphylococcus aureus (ATCC #14154 and #14775); for the combination: concentration of each

For CCCCCCCCCCCC(=O)OCC(O)CO (stereo not shown) [monolaurin], the “bactericidal concentration in culture” value is given as “mirrored origanum oil”.
